Measured values taken from US12503475B2 (Centessa Pharmaceuticals (UK) Limited, priority 2020, dated 2025).
Read-outs that look alike come from different tables or passages of the source.

Biological target: T1, human orexin type 2 receptor (hOX2R) (Homo sapiens, UniProt O43614)
T1 construct: expressed in transfected cells
T1 sequence (O43614 1-444): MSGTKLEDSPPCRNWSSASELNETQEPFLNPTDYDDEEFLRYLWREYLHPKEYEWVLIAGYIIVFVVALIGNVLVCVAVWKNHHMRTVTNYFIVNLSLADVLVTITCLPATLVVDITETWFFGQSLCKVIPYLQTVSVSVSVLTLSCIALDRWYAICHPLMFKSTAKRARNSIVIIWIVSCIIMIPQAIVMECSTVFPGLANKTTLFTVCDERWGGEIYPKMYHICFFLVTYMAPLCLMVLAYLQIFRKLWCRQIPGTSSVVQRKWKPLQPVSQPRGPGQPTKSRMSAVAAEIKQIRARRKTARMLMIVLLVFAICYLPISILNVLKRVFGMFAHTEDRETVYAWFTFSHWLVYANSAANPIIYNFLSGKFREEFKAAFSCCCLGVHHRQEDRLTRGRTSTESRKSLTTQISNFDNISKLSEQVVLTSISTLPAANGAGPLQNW
Test: Measurement of orexin type 2 receptor agonist activity (FLIPR calcium fluorescence)
Format: cell-based
Conditions: for EC50: read-out: hOx2 pEC50 (converted); for Emax: CHO, read-out: hOx2 Emax (%)
In short: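 Agonism was read as fluorescence in cells stably expressing human OX2R. E. is the response at 10 μM relative to orexin A as full agonist (100%).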

[1] = CHO cells expressing hOX2R, FLIPR calcium fluorescence

EC50 [1] [nM]	Emax [1] [%]	Compound	hOx2 Emax (%) [1]	hOx2 pEC50 [1]	Emax [%]
10 to 100	90 to 100	CS(=O)(=O)N[C@@H]1[C@H](Cc2cccc(-c3ccccc3)c2F)N(C(=O)N2CC(F)(F)C2)CC12CC2 [Compound 87, N-((6S,7S)-5-(3,3-difluoroazetidine-1-carbonyl)-6-((2-fluoro-[1,1′-biphenyl]-3-yl)methyl)-5-azaspiro[2.4]heptan-7-yl)methanesulfonamide]			
0.0794 to 1	90 to 100	CCN(C)C(=O)N1CC2(CC2)[C@H](NS(C)(=O)=O)[C@@H]1Cc1cccc(-c2ccccc2)c1F [Compound 88, (6S,7S)-N-ethyl-6-((2-fluoro-[1,1′-biphenyl]-3-yl)methyl)-N-methyl-7-(methylsulfonamido)-5-azaspiro[2.4]heptane-5-carboxamide]			
0.0794 to 1	90 to 100	O=C([C@H]1CCO1)N1CC2(CC2)[C@H](NS(=O)(=O)CF)[C@@H]1Cc1cccc(-c2ccccc2)c1F [Compound 93, 1-fluoro-N-((6S,7S)-6-((2-fluoro-[1,1′-biphenyl]-3-yl)methyl)-5-((R)-oxetane-2-carbonyl)-5-azaspiro[2.4]heptan-7-yl)methanesulfonamide]			
1 to 10	90 to 100	O=C([C@H](O)C(F)(F)F)N1CC2(CC2)[C@H](NS(=O)(=O)CF)[C@@H]1Cc1cccc(-c2ccccc2)c1 [Compound 94, N-((6S,7S)-6-([1,1′-biphenyl]-3-ylmethyl)-5-((S)-3,3,3-trifluoro-2-hydroxypropanoyl)-5-azaspiro[2.4]heptan-7-yl)-1-fluoromethanesulfonamide]			
1 to 10	90 to 100	O=C([C@H](O)C(F)(F)F)N1CC2(CC2)[C@H](NS(=O)(=O)CF)[C@@H]1Cc1cccc(-c2ccccc2)c1F [Compound 98, 1-fluoro-N-((6S,7S)-6-((2-fluoro-[1,1′-biphenyl]-3-yl)methyl)-5-((S)-3,3,3-trifluoro-2-hydroxypropanoyl)-5-azaspiro[2.4]heptan-7-yl)methanesulfonamide]			
0.0794 to 1	90 to 100	C[C@H](CF)NC(=O)N1CC2(CC2)[C@H](NS(C)(=O)=O)[C@@H]1Cc1cccc(-c2ccccc2)c1F [Compound 101, (6S,7S)-6-((2-fluoro-[1,1′-biphenyl]-3-yl)methyl)-N-((R)-1-fluoropropan-2-yl)-7-(methylsulfonamido)-5-azaspiro[2.4]heptane-5-carboxamide]			
1 to 10	90 to 100	CCCNC(=O)N1CC2(CC2)[C@H](NS(C)(=O)=O)[C@@H]1Cc1cccc(-c2ccccc2)c1F [Compound 111, (6S,7S)-6-((2-fluoro-[1,1′-biphenyl]-3-yl)methyl)-7-(methylsulfonamido)-N-propyl-5- .azaspiro[2.4]heptane-5-carboxamide]			
0.0794 to 1	90 to 100	CS(=O)(=O)N[C@@H]1[C@H](Cc2cccc(-c3ccccc3)c2F)N(C(=O)NCC(F)F)CC12CC2 [Compound 112, (6S,7S)-N-(2,2-difluoroethyl)-6-((2-fluoro-[1,1′-biphenyl]-3-yl)methyl)-7-(methylsulfonamido)-5-azaspiro[2.4]heptane-5-carboxamide]			

Continued, compound first:

Compound	EC50 [1] [nM]	Emax [1] [%]	hOx2 Emax (%) [1]	hOx2 pEC50 [1]	Emax [%]
CCNC(=O)N1CC2(CC2)[C@H](NS(=O)(=O)CC)[C@@H]1Cc1cccc(-c2ccccc2)c1F [Compound 89]			A (Emax ranging between 90 and 100)	***** (pEC50 ranging between 9.0 and 10.1)	
CN(C)S(=O)(=O)N[C@@H]1[C@H](Cc2cccc(-c3ccccc3)c2)N(C(=O)[C@H]2CCO2)CC12CC2 [Compound 95, N-((6S,7S)-6-([1,1′-biphenyl]-3-ylmethyl)-5-((R)-oxetane-2-carbonyl)-5-azaspiro[2.4]heptan-7-yl)-N,N-dimethylsulfuric diamide]	1 to 10	90 to 100			
O=C([C@H]1CCO1)N1CC2(CC2)[C@H](NS(=O)(=O)N2CCCC2)[C@@H]1Cc1cccc(-c2ccccc2)c1 [Compound 96, N-((6S,7S)-6-([1,1′-biphenyl]-3-ylmethyl)-5-((R)-oxetane-2-carbonyl)-5-azaspiro[2.4]heptan-7-yl)pyrrolidine-1-sulfonamide]	10 to 100	80 to 90			
CN(C1CC1)S(=O)(=O)N[C@@H]1[C@H](Cc2cccc(-c3ccccc3)c2)N(C(=O)[C@H]2CCO2)CC12CC2 [Compound 97]	10 to 100	80 to 90			
CS(=O)(=O)N[C@@H]1[C@H](Cc2cccc(-c3ccccc3)c2F)N(C(=O)NCC(F)(F)F)CC12CC2 [Compound 99, (6S,7S)-6-((2-fluoro-[1,1′-biphenyl]-3-yl)methyl)-7-(methylsulfonamido)-N-(2,2,2-trifluoroethyl)-5-azaspiro[2.4]heptane-5-carboxamide]	1 to 10				90 to 100
COC1(CNC(=O)N2CC3(CC3)[C@H](NS(C)(=O)=O)[C@@H]2Cc2cccc(-c3ccccc3)c2F)CC1 [Compound 100, (6S,7S)-6-((2-fluoro-[1,1′-biphenyl]-3-yl)methyl)-N-((1-methoxycyclopropyl)methyl)-7-(methylsulfonamido)-5-azaspiro[2.4]heptane-5-carboxamide]	0.0794 to 1	90 to 100			
COC[C@@H]1CCN1C(=O)N1CC2(CC2)[C@H](NS(C)(=O)=O)[C@@H]1Cc1cccc(-c2ccccc2)c1F [Compound 102, N-((6S,7S)-6-((2-fluoro-[1,1′-biphenyl]-3-yl)methyl)-5-((S)-2-(methoxymethyl)azetidine-1-carbonyl)-5-azaspiro[2.4]heptan-7-yl)methanesulfonamide]	1 to 10	90 to 100			
COC[C@H]1CCN1C(=O)N1CC2(CC2)[C@H](NS(C)(=O)=O)[C@@H]1Cc1cccc(-c2ccccc2)c1F [Compound 103, N-((6S,7S)-6-((2-fluoro-[1,1′-biphenyl]-3-yl)methyl)-5-((R)-2-(methoxymethyl)azetidine-1-carbonyl)-5-azaspiro[2.4]heptan-7-yl)methanesulfonamide]	10 to 100	90 to 100			
CS(=O)(=O)N[C@@H]1[C@H](Cc2cccc(-c3ccccc3)c2F)N(C(=O)NCC2(F)CC2)CC12CC2 [Compound 104, (6S,7S)-6-((2-fluoro-[1,1′-biphenyl]-3-yl)methyl)-N-((1-fluorocyclopropyl)methyl)-7-(methylsulfonamido)-5-azaspiro[2.4]heptane-5-carboxamide]	1 to 10	90 to 100			
CS(=O)(=O)N[C@@H]1[C@H](Cc2cccc(-c3ccccc3F)c2F)N(C(=O)[C@H]2CCO2)CC12CC2 [Compound 107, N-((6S,7S)-6-((2,2′-difluoro-[1,1′-biphenyl]-3-yl)methyl)-5-((R)-oxetane-2-carbonyl)-5-azaspiro[2.4]heptan-7-yl)methanesulfonamide]	1 to 10	90 to 100			
CN(C)C(=O)N1CC2(CC2)[C@H](NS(C)(=O)=O)[C@@H]1Cc1cccc(-c2ccccc2)c1F [Compound 110, (6S,7S)-6-((2-fluoro-[1,1′-biphenyl]-3-yl)methyl)-N,N-dimethyl-7-(methylsulfonamido)-5-azaspiro[2.4]heptane-5-carboxamide]	0.0794 to 1				90 to 100
CS(=O)(=O)N[C@@H]1[C@H](Cc2cccc(-c3ccccc3)c2)N(C(=O)C23CC2C3)CC12CC2 (stereo partly drawn) [Compound 113, N-((6S,7S)-6-([1,1′-biphenyl]-3-ylmethyl)-5-(bicyclo[1.1.0]butane-1-carbonyl)-5-azaspiro[2.4]heptan-7-yl)methanesulfonamide]	1 to 10	90 to 100			
